In patent publication US20240150401A1, “INSECT NEUROPEPTIDES 7” (Solasta Bio Limited, priority 2022, published 2024):

Legend:
Format in all cases: in vivo
bees = test: Bee oral toxicity test (adapted from OECD Test No. 247: Bumblebee, Acute Oral Toxicity Test); conditions: 96 hours after application, compared to Imidacloprid (FIG. 9)
Experimental: Bee oral testing protocol was carried out adapted from OECD Test No. 247: Bumblebee, Acute Oral Toxicity Test. The toxicity of SB-P-66 was compared with a negative control of sucrose or vehicle, and with a current commercial insecticide Imidacloprid.

Myzus persicae aphids = test: Leaf dip assay (IRAC susceptibility test method 019), mortality assessment; conditions: unformulated, mortality assessed at 72, 96 and 120 hours, compared to vehicle and Spirotetramat (FIGS. 6-8)
Experimental: The assay was carried out based on IRAC susceptibility test method 019 (https://irac-online.org/methods/aphids-adultnymphs/).
Fill a small 4 cm wide 3 cm high dish with a 1% agar treatment solution of the active chemical or control (ensuring 1 cm gap between the agar and the lid) and leave to set. Dip a 2.5 cm leaf disc into 3 ml of treatment solution allowing the treatment to coat the leaf. Leave the disc to dry for 1 hour and place onto the set agar. Place insects (Myzus persicae aphids) onto each of the leaf discs. Each unit is sealed with a close-fitting, ventilated lid. Place the agar dishes in a small plastic tray lined with moist tissue paper and ensure the water trays in the bottom of the incubator are filled with clean water and place within the incubator. An assessment of mortality is made at 72, 96 and 120 hours. Leaf dip assays were performed with SB-P-66, and compared to a negative control vehicle and a current commercial insecticide Spirotetramat. The activity of SB-P-66 is shown in FIGS. 6 and 7; SB-P-66 has good activity whilst being eco-friendly and targeted to specific pests unlike broad spectrum chemical insecticides such as Spirotetramat.

Aphis gossypii = test: Field trials on cotton and melon (AgriScience); conditions: unformulated, naturally infested, comparable to commercial insecticides (FIGS. 11, 12)
Experimental: (§1) Field trials for peptide SB-P-66, unformulated, against various insects were conducted by third-party organisations PGRO and AgriScience.

Aphis fabae = test: Field trials on vining peas (PGRO); conditions: unformulated, naturally infested, comparable to commercial insecticides (FIGS. 10, 13)
Experimental: as §1

Myzus persicae = test: Field trials; conditions: unformulated; comparable to commercial insecticides
Experimental: as §1

[1] = test system: Amrasca biguttula (leaf hopper); test: Field trials; conditions: unformulated; naturally infested; over time; comparable to commercial insecticides (FIG. 14)
Experimental: as §1

H-PAFSSWG-NH2 [SB-P-66, [Hy]-PAFSSWG-[NH2]]
bee oral toxicity (% survival) (bees): far lower toxicity | activity against Myzus persicae (mortality) (Myzus persicae aphids): good activity | efficacy in field trials against Aphis gossypii (Aphis gossypii): good efficacy | efficacy in field trials against Aphis fabae (Aphis fabae): good efficacy | efficacy in field trials against Myzus persicae (Myzus persicae): good efficacy | efficacy in field trials against Amrasca biguttula [1]: good efficacy
